# Test results: ChEMBL document CHEMBL4725453, “Modulation of Androgen Receptor for Therapeutic Application in Cancer and Viral Infection” (ACS Med Chem Lett, 2020)
# Target: T1, Androgen receptor (Homo sapiens, UniProt P10275)
# T1 sequence (P10275 whole entry): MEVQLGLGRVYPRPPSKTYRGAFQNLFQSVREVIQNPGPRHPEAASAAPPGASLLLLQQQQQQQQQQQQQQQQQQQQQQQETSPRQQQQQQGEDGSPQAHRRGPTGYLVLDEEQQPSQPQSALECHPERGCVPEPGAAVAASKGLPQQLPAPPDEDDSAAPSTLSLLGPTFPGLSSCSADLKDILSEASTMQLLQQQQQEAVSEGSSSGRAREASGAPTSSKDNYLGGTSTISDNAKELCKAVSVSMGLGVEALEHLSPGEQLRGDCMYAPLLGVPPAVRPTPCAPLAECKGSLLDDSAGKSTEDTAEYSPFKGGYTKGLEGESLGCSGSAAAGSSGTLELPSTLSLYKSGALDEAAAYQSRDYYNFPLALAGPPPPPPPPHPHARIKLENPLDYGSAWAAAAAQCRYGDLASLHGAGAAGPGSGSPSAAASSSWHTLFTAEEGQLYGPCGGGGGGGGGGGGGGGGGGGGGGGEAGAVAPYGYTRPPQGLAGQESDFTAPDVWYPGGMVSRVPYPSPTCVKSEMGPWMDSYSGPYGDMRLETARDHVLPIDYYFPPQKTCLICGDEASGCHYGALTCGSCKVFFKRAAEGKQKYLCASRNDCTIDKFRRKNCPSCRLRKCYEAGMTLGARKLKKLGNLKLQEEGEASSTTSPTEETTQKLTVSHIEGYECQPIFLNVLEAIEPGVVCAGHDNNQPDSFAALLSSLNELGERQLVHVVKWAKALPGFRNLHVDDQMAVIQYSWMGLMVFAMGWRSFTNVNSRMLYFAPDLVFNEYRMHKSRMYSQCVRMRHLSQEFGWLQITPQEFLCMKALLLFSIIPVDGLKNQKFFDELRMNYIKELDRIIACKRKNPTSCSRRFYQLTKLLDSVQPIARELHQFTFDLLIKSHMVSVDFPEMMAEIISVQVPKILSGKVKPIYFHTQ
# Test: Modulation of AR in human LNCAP cells transfected with PSA reporter gene assessed as inhibition of R1881-induced PSA luciferase activity pretreated for 1 hr followed by R1881 addition and measured after 24 hrs by luciferase assay
# Type: cell-based
row,SMILES,IC50
1,CC(C)S(=O)(=O)Nc1nc(COc2ccc(C(C)(C)c3cc(Cl)c(OCCCl)c(C#N)c3)cc2)co1,500 nM
2,CC(C)(c1ccc(OCc2ccnc(NS(C)(=O)=O)n2)cc1)c1cc(F)c(OCCCl)c(Cl)c1,500 nM
3,CC(C)S(=O)(=O)c1nc(COc2ccc(C(C)(C)c3cc(Cl)c(OCCCl)c(C#N)c3)cc2)co1,< 500 nM
4,CC(C)(c1ccc(OCc2ccnc(NS(C)(=O)=O)n2)cc1)c1cc(Cl)c(OCCCl)c(Cl)c1,< 500 nM
5,CC(C)(c1ccc(OCc2cnc(NS(C)(=O)=O)nc2)cc1)c1cc(Cl)c(OCCCl)c(C#N)c1,< 500 nM
6,CC(C)(c1ccc(OCc2cnc(Cl)o2)cc1)c1cc(Cl)c(OCCCl)c(C#N)c1,< 500 nM
7,Cc1nc(NS(C)(=O)=O)nc(COc2ccc(C(C)(C)c3cc(Cl)c(OCCCl)c(C#N)c3)cc2)c1C,< 500 nM
8,CSc1nc(C)c(COc2ccc(C(C)(C)c3cc(Cl)c(OCCCl)c(C#N)c3)cc2)o1,< 500 nM

# Now from value to molecule:
row,IC50,SMILES
1,< 500 nM,Cc1cnc(NS(C)(=O)=O)nc1COc1ccc(C(C)(C)c2cc(Cl)c(OCCCl)c(C#N)c2)cc1
2,< 500 nM,CC(C)(c1ccc(OCc2cnc(NS(C)(=O)=O)o2)cc1)c1cc(Cl)c(OCCCl)c(C#N)c1
3,< 500 nM,CC(C)(c1ccc(OCc2ncc(NS(C)(=O)=O)s2)cc1)c1cc(Cl)c(OCCCl)c(C#N)c1
4,< 500 nM,CC(C)(c1ccc(OCc2nc(NS(C)(=O)=O)cs2)cc1)c1cc(Cl)c(OCCCl)c(C#N)c1
